We go through 2 molecules from ChEMBL document CHEMBL1139224, “Discovery and metabolic stabilization of potent and selective 2-amino-N-(adamant-2-yl) acetamide 11beta-hydroxysteroid dehydrogenase type 1 inhibitors” (J Med Chem, 2007).

pIC50, pKi: −log10 of the molar value. Bounds are passed on as bounds.

Series [1] has as its target 11-beta-hydroxysteroid dehydrogenase 1 (Mus musculus) (UniProt P50172). Description: Inhibition of mouse 11beta-HSD1 in DIO mouse brain at 30 mg/kg, po after 1 hr. Format: organism-based. Set-up: dose 30 mg/kg.
For series [2] the target is unchanged. Briefly: Inhibition of mouse 11beta-HSD1 in DIO mouse brain at 30 mg/kg, po after 7 hrs. Format: organism-based. Further details: dose 30 mg/kg.
Series [3] deals with 11-beta-hydroxysteroid dehydrogenase 1 (Rattus norvegicus, UniProt P16232). Description: Inhibitory activity against rat 11beta-HSD1.
Sequence of 11-beta-hydroxysteroid dehydrogenase 1 (Rattus norvegicus, UniProt P16232) (P16232 whole entry): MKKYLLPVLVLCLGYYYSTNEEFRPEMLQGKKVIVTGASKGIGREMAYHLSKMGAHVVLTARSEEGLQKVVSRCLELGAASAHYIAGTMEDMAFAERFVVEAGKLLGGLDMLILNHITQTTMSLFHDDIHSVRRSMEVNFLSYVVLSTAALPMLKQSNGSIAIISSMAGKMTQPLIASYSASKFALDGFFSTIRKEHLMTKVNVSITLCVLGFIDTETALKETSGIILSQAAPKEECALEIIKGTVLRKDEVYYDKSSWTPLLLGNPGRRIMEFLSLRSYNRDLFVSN
Series [4] deals with T1, 11-beta-hydroxysteroid dehydrogenase type 2 (Rattus norvegicus, UniProt P50233).
T1 sequence (P50233 whole entry): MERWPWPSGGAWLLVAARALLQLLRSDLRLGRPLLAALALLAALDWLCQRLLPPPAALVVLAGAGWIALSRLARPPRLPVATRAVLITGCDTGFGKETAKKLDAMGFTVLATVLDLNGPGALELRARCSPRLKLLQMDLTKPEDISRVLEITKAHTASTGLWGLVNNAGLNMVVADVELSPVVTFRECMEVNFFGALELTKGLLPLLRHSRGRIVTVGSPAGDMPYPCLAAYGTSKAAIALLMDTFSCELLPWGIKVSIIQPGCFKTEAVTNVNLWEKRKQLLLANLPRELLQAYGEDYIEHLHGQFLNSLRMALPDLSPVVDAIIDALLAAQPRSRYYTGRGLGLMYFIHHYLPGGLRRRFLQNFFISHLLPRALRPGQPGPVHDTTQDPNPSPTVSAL
Briefly: Inhibitory activity against rat 11beta-HSD2.

Series [5] in a line: Intrinsic clearance in rat liver microsomes at 1 uM. Format: ADME, Microsome. Background: Liver microsomes are a subcellular fraction often used to study metabolism.
Series [6] can be described thus: Half life in rat at 5 mg/kg, iv. Type of series: ADME, organism-based. Set-up: dose 5 mg/kg, route intravenous. The conditions noted are these: in vivo.
Series [7] can be described thus: Volume of distribution in rat at 5 mg/kg, iv. Format: ADME, organism-based. Set-up: dose 5 mg/kg, route intravenous. The conditions noted are these: in vivo, read-out: Vss.
A short description of series [8]: Plasma clearance in rat at 5 mg/kg, iv. Format: ADME, organism-based. Further details: dose 5 mg/kg, route intravenous.
Series [9] is described as follows: Half life in rat at 5 mg/kg, po. Format: ADME, organism-based. Set-up: dose 5 mg/kg, route oral. Particulars: in vivo.
A further series has as its system Rattus norvegicus. Description: Area under the curve in rat at 5 mg/kg, po. Format: ADME, organism-based. Set-up: dose 5 mg/kg, route oral. Particulars: in vivo.
A short description of series [10]: Oral bioavailability in rat at 5 mg/kg, po. Format: ADME, organism-based. Particulars: in vivo.
Series [11] has as its target T2, 11-beta-hydroxysteroid dehydrogenase 1 (Homo sapiens, UniProt P28845). Description: Inhibition of human 11beta-HSD1 expressed in Escherichia coli by SPA.
The target in series [12] is 11-beta-hydroxysteroid dehydrogenase 1 (Mus musculus, UniProt P50172). Briefly: Inhibition of mouse 11beta-HSD1 expressed in Escherichia coli by SPA.
Sequence of 11-beta-hydroxysteroid dehydrogenase 1 (Mus musculus, UniProt P50172) (P50172 whole entry): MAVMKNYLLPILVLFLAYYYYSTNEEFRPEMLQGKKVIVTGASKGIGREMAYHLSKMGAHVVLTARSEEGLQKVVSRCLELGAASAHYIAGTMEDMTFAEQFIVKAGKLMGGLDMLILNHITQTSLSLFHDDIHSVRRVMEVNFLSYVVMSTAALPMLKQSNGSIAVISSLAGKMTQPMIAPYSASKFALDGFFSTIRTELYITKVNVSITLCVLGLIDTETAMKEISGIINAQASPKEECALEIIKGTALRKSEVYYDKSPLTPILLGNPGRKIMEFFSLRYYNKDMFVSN
Series [13] has as its target T2, 11-beta-hydroxysteroid dehydrogenase 1. Briefly: Inhibition of human 11beta-HSD1 expressed in HEK293 cells by FPIA. Type of series: cell-based.
Series [14] can be described thus: Intrinsic clearance in human liver microsomes at 1 uM. Format: ADME, Microsome.
A short description of series [15]: Intrinsic clearance in mouse liver microsomes at 1 uM. Type of series: ADME, Microsome.
Series [16] deals with T3, 11-beta-hydroxysteroid dehydrogenase type 2 (Homo sapiens, UniProt P80365).
T3 sequence (P80365 whole entry): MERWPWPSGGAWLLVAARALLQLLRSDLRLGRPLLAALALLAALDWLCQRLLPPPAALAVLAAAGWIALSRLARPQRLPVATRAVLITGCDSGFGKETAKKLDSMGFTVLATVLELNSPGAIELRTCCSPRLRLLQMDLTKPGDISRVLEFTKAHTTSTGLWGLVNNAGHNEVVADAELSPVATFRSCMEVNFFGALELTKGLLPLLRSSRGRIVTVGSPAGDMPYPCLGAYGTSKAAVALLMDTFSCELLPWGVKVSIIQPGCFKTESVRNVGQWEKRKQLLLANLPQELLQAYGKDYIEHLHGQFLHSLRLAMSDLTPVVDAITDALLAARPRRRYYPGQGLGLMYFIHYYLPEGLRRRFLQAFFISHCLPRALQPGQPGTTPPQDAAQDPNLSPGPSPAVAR
Briefly: Inhibitory activity against human 11beta-HSD2 by SPA.

The target in series [17] is T4, 11-beta-hydroxysteroid dehydrogenase type 2 (Mus musculus, UniProt P51661).
T4 sequence (P51661 whole entry): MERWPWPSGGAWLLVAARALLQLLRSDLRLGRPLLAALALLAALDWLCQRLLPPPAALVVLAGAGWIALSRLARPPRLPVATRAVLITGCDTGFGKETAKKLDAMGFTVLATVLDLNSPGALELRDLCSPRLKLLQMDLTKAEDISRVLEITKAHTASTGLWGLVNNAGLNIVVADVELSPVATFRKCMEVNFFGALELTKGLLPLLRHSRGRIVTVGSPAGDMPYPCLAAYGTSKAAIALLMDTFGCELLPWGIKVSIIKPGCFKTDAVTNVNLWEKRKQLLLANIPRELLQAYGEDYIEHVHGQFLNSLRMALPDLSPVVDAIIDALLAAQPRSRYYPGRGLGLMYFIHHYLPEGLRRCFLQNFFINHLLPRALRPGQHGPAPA
Description: Inhibitory activity against mouse 11beta-HSD2 by SPA.

Series [18] is described as follows: Half life in mouse at 10 mg/kg, iv. The conditions noted are these: in vivo. Format: ADME, organism-based. Set-up: dose 10 mg/kg, route intravenous.
The nature of series [19]: Volume of distribution in mouse at 10 mg/kg, iv. The conditions noted are these: in vivo, read-out: Vdss. Set-up: dose 10 mg/kg, route intravenous. Format: ADME, organism-based.
The nature of series [20]: Plasma clearance in mouse at 10 mg/kg, iv. Type of series: ADME, organism-based. Set-up: dose 10 mg/kg, route intravenous.
Series [21] is described as follows: Half life in mouse at 10 mg/kg, po. Particulars: in vivo. Type of series: ADME, organism-based. Set-up: dose 10 mg/kg, route oral.
Another series has as its system Mus musculus. Briefly: AUC in mouse at 10 mg/kg, po. Type of series: ADME, organism-based, Plasma. Further details: dose 10 mg/kg, route oral. The conditions noted are these: in vivo.
Series [22] can be described thus: Oral bioavailability in mouse at 10 mg/kg, po. Format: ADME, organism-based. The conditions noted are these: in vivo.
Series [23] has as its target 11-beta-hydroxysteroid dehydrogenase 1 (Mus musculus) (UniProt P50172). Description: Inhibition of mouse 11beta-HSD1 in DIO mouse liver at 30 mg/kg, po after 1 hr. Type of series: organism-based. Set-up: dose 30 mg/kg.
For series [24] the target is unchanged. Description: Inhibition of mouse 11beta-HSD1 in DIO mouse liver at 30 mg/kg, po after 7 hrs. Type of series: organism-based. Further details: dose 30 mg/kg.
For series [25] the target is unchanged. Description: Inhibition of mouse 11beta-HSD1 in DIO mouse adipose tissue at 30 mg/kg, po after 1 hr. Type of series: organism-based. Set-up: dose 30 mg/kg.
Series [26] has the same target. Description: Inhibition of mouse 11beta-HSD1 in DIO mouse adipose tissue at 30 mg/kg, po after 7 hrs. Format: organism-based. Further details: dose 30 mg/kg.

T2 sequence (P28845 whole entry): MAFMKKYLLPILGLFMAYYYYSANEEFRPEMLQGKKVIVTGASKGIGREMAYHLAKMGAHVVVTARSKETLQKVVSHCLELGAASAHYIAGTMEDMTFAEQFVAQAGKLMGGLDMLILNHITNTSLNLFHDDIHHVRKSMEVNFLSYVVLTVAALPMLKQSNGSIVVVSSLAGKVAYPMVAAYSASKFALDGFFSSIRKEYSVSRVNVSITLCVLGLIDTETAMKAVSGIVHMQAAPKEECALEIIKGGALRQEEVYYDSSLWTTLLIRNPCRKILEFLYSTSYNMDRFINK
Sequence of 11-beta-hydroxysteroid dehydrogenase 1 (Mus musculus) (P50172 whole entry, looked up): as the sequence (P50172 whole entry) above

One may read the inhibition as the percentage by which the read-out fell short of the control. Read a high inhibition as a strong effect. The pKi is −log10 of the Ki, conventionally taken in molar units. High values mean a low Ki, low ones a high Ki. Broadly, the pIC50 is the negative decadic logarithm of the IC50, by convention in mol/L. By CLint scaled is commonly meant the rate of metabolic loss divided by the concentration. The low end stands for greater metabolic stability, the high end for faster metabolism. The term half-life denotes the time in which the quantity being followed falls by half. Low readings indicate rapid decline, high ones slow decline. Broadly, the clearance is a measure of how efficiently the substance is removed, as volume per time. By bioavailability is commonly meant dose-corrected exposure relative to a reference, in per cent. A higher bioavailability goes with good availability. Turning to `CC(C(=O)N[C@H]1C2CC3CC1C[C@](O)(C3)C2)N1CCN(c2ccc(C(F)(F)F)cn2)CC1` (mixture of isomers), the inhibition in series [1] came to 37%; in series [2], 25%; in series [23], 36%; in series [24], 9%; in series [25] it was 51%; in series [26] it was 16%. Besides, the pKi in series [3] is 8.40; in [11], 8.30; in series [12], 7.82. The pIC50 in series [4] was < 4.00; in series [13], 7.54; in series [16], < 4.00; in series [17] it was < 4.00. Besides, the intrinsic metabolic clearance (CLint scaled) at 1 µM in series [5] is 83.3 mL/min/kg; in [14], 50 mL/min/kg; in series [15] it was 117 mL/min/kg. Also, the half-life in [6] is 60 min; in series [9] it was 96 min; in series [18], 24 min; in [21], 60 min. Further, the Vd in [7] came out at 1 L/kg; in [19] it was 1.6 L/kg. For the same molecule, the values for the clearance in series [8] and in series [20] were 33.3 mL/min/kg and 55 mL/min/kg, respectively. For the same molecule, the AUC with Rattus norvegicus was determined as 1 ug/hr.ml; in the series on Mus musculus it was 1.9 ug/hr.ml. Moreover, the bioavailability in series [10] amounted to 37%; in series [22], 65%.
Take `O=C(CN1CCN(c2ccc(C(F)(F)F)cn2)CC1)N[C@H]1C2CC3CC1C[C@](O)(C3)C2`: the pKi is 8.22 in [3], 8.10 in series [11] and 7.47 in series [12]. Further, the negative-log IC50 (pIC50) is < 4.00 in [4], 6.89 in [13], < 4.00 in [16] and < 4.00 in series [17]. The intrinsic clearance (CLint scaled) at 1 µM in series [5] was < 50 mL/min/kg; in series [14] it was 16.7 mL/min/kg; in [15], 683 mL/min/kg. The figures for the half-life in series [6] and in series [9] were 84 min and 78 min, respectively. In series [7], the Vd was 2.2 L/kg. This molecule also gave a clearance in series [8] of 23.3 mL/min/kg. The molecule also showed an AUC with Rattus norvegicus of 2.4 ug/hr.ml. For the same molecule, the bioavailability in series [10] stood at 65%.
